Measurements as given in patent publication US20140357512A1, “HISTONE DEACETYLASE (HDAC) BIOMARKERS IN MULTIPLE MYELOMA” (priority 2013, published 2014).

System: human myeloma cell line MM.1S
Assay: SILAC acetylated-lysine peptide profiling, HDAC inhibitor vs DMSO (light/heavy ratio)
Assay type: cell-based
Source text: An embodiment of the invention comprises utilizing the SILAC method in order to quantitate changes in protein expression between two or more populations of cells. The SILAC method is a technique based on mass spectrometry that detects differences in protein abundance among samples using non-radioactive isotopic labeling. The SILAC method is known in the art, and described in detail in Ong et al., “Stable Isotope Labeling by Amino Acids in Cell Culture, SILAC, as a Simple and Accurate Approach to Expression Proteomics”, Molecular & Cellular Proteomics, vol. 1, pp. 376-386 (2002), which is incorporated herein by reference in its entirety.
Briefly, the SILAC method involves growing two populations of cells in cell culture. The first population of cells is grown in growth media containing normal amino acids (“normal media”). The second population of cells is grown in media lacking a standard essential amino acid (such as lysine), but is then supplemented with a non-radioactive, isotopically labeled form of that essential amino acid (such as lysine labeled with ^13C atoms, rather than normal ^12C atoms), which is called “heavy media”. When the two populations of cells are each growing in the medium, they incorporate the amino acids into all of their proteins. The growth of cells maintained in the heavy media is no different from that in normal media. All peptides containing the heavy amino acids are heavier than their normal counterparts. The cells from each of the two populations of cells are lysed. The lysates from each of the two cell populations are then combined. The combined cell lysates are then analyzed by mass spectrometry. Pairs of chemically identical peptides of different stable isotope composition can be differentiated in a mass spectrometer due to their difference in mass. The ratio of peak intensities in the mass spectrum for such peptide pairs reflects the abundance ratio for the two proteins.
This example describes SILAC studies that were performed to compare the effects of three different HDAC inhibitors (Compound A, Compound B, and tubastatin A) to a control on a human multiple myeloma cell line. The HDAC inhibitors were also compared amongst themselves to determine differences in their effects.
A human myeloma cell line MM.1S was grown using either ^12C (light) or ^13C (heavy) lysine containing culture medium. The “heavy” cells were treated with DMSO as the control, and the “light” cells were treated with a single HDAC inhibitor at 37° C. for 6 hours. The heavy and light cells were lysed, and the lysates were mixed in 1:1 ratio and digested with the protease trypsin. The acetylated lysine containing peptides (due to the action of the HDAC inhibitor) in the digested peptide pool were captured by a non-specific anti-acetylated lysine antibody cocktail (the antibodies identify both light and heavy acetylated peptides), and subjected to mass spectrometry analysis in order to identify thousands of individual peptides.
Thousands of peptides were identified in pairs (^12C and ^13C) due to their known mass differences. The amino acid sequence and quantitative ratio (Light/Heavy) of a given peptide in two differentially treated cell lysates were then determined and annotated with their possible protein (gene) sources.
As stated above, three HDAC inhibitors (Compound A, Compound B, and Tubastatin A) were used. Thus, the SILAC method was performed three times, with a different HDAC inhibitor compared to a control each time. Accordingly, there are three pairs of quantitative data in the table below, i.e., Compound A:DMSO, Compound B:DMSO, and Tubastatin A:DMSO. A cut-off of 1.30 fold of change (increase or decrease) was then used to determine “changed” or “+” in the table, and any peptides with a fold of change less than 1.3 fold were determined to be “unchanged” or “0” in the table. Those peptides that were not identified were marked as “NA” in the table. […]

Q: Which results are given for O=C(NO)c1cnc(NC2(c3cccc(F)c3)CCCCC2)nc1 [Compound B, 2-((1-(3-fluorophenyl)cyclohexyl)amino)-N-hydroxypyrimidine-5-carboxamide]?
A: L/H ratio of acetylated peptide (LCMLYHPDK(ac)HRDPELK (SEQ ID NO: 389), Isoform 3 of DnaJ homolog subfamily C member 11 [45], DNAJC11): −0.69 log 2; L/H ratio of acetylated peptide (LHSNYYK(ac)HK (SEQ ID NO: 371), Uncharacterized protein C6orf125 [69], C6orf125): 0.52 log 2; L/H ratio of acetylated peptide (LHYK(ac)HESWLLHR (SEQ ID NO: 385), Deoxycytidine kinase [211], DCK): −0.43 log 2; light to heavy ratio (L/H ratio) of acetylated peptide, log 2 scale (LIK(ac)VHLDK (SEQ ID NO: 215), 40S ribosomal protein S7 [155], RPS7): 0.00; L/H ratio of acetylated peptide (LK(ac)ADVFK (SEQ ID NO: 375), Isoform 1 of Chromodomain-helicase-DNA-binding protein 4 [959], CHD4): −0.45 log 2; L/H ratio of acetylated peptide (LK(ac)AEKYR (SEQ ID NO: 414), Isoform 1 of Leucine-rich repeat and IQ domain-containing protein 3 [557], LRRIQ3): −1.00 log 2; L/H ratio of acetylated peptide LYK(ac)[…] (SEQ ID NO: 4) (LMNB1 [261], log 2 scale, drug vs DMSO): 0.48; L/H ratio of acetylated peptide […](ac)LENAR (SEQ ID NO: 58) (LMNB1 [271], log 2 scale, drug vs DMSO): 0.00; light to heavy ratio (L/H ratio) of acetylated peptide, log 2 scale (LNEQK(ac)LAQLEEAK (SEQ ID NO: 133), ATP synthase subunit b mitochondrial [131], ATP5F1): 0.00; L/H ratio of acetylated peptide (LNPK(ac)[…] (SEQ ID NO: 448), Serine hydroxymethyltransferase mitochondrial [200], SHMT2): −0.41 log 2; L/H ratio of acetylated peptide GFGYK(ac)GSCFHR (SEQ ID NO: 59) (LOC390956 [71], log 2 scale, drug vs DMSO): 0.00; light to heavy ratio (L/H ratio) of acetylated peptide, log 2 scale (LSLDK(ac)VFR (SEQ ID NO: 226), Stomatin-like protein 2 [145], STOML2): 0.00; light to heavy ratio (L/H ratio) of acetylated peptide, log 2 scale (LTEAKPVDK(ac)VK (SEQ ID NO: 221), cDNA FLJ60124 highly similar to Mitochondrial dicarboxylate carrier [142], SLC25A10): 0.00; L/H ratio of acetylated peptide (LVQTAELTK(ac)VFEIR (SEQ ID NO: 398), Glia maturation factor gamma [119], GMFG): −0.80 log 2; light to heavy ratio (L/H ratio) of acetylated peptide, log 2 scale (LYATMEK(ac)HK (SEQ ID NO: 251), Histone acetyltransferase p300 [1590], EP300): 0.00; light to heavy ratio (L/H ratio) of acetylated peptide AVLK(ac)[…] (SEQ ID NO: 262) (Laminin receptor-like protein LAMRL5 [89], SNORA6, RPSAP15, SNORA62, RPSA, drug:DMSO): 0.00 log 2; light to heavy ratio (L/H ratio) of acetylated peptide SYVSEK(ac)DVTSAK (SEQ ID NO: 628) (Leucine-rich PPR motif-containing protein mitochondrial [1332], gene LRPPRC, inhibitor:DMSO): 0.00 log 2; L/H ratio of acetylated peptide ICCQFDFK(ac)R (SEQ ID NO: 60) (MAN2A1 [373], log 2 scale, drug vs DMSO): 0.00; L/H ratio of acetylated peptide YLTNQK(ac)NSNSK(ac)NDR (SEQ ID NO: 17) (MEAF6 [69:74], log 2 scale, drug vs DMSO): 0.43; light to heavy ratio (L/H ratio) of acetylated peptide, log 2 scale (MKENQK(ac)[…] (SEQ ID NO: 169), Isoform 2 of Heat shock protein HSP 90-alpha [611], HSP90AA1): 0.00; L/H ratio of acetylated peptide (MLEK(ac)DVCEK (SEQ ID NO: 446), Isoform 1 of Protein RUFY3 [382], RUFY3): 0.62 log 2; L/H ratio of acetylated peptide (MLK(ac)QMLFR (SEQ ID NO: 433), Proteasome subunit beta type-7 [127], PSMB7): −0.47 log 2; L/H ratio of acetylated peptide TLVLSDK(ac)HSPQK(ac)K (SEQ ID NO: 5) (MLL3 [2809:2814], log 2 scale, drug vs DMSO): 0.38; L/H ratio of acetylated peptide LNK(ac)DQWEER (SEQ ID NO: 10) (MSN [165], log 2 scale, drug vs DMSO): 0.71; light to heavy ratio (L/H ratio) of acetylated peptide VHLSQK(ac)YK (SEQ ID NO: 343) (Matrin-3 [473], MATR3, SNHG4, drug:DMSO): 0.40 log 2; light to heavy ratio (L/H ratio) of acetylated peptide FLNK(ac)LAEER (SEQ ID NO: 342) (Matrin-3 [836], MATR3, SNHG4, drug:DMSO): −0.44 log 2; light to heavy ratio (L/H ratio) of acetylated peptide MTDK(ac)CFR (SEQ ID NO: 573) (Mitochondrial import inner membrane translocase subunit Tim13 [45], gene TIMM13, inhibitor:DMSO): 0.00 log 2; light to heavy ratio (L/H ratio), log 2 scale, acetylated peptide YVK(ac)ALFR (SEQ ID NO: 771) (Mitochondrial import receptor subunit TOM70 [188], gene TOMM70A, drug:DMSO): 0.00; light to heavy ratio (L/H ratio) of acetylated peptide LSLLSK(ac)FR (SEQ ID NO: 564) (Mitochondrial trifunctional protein beta subunit (Fragment) [100], gene HADHB, inhibitor:DMSO): 0.00 log 2; light to heavy ratio (L/H ratio) of acetylated peptide EIFQNEK(ac)R (SEQ ID NO: 288) (NAD(P) transhydrogenase mitochondrial [70], NNT, drug:DMSO): 0.00 log 2; light to heavy ratio (L/H ratio) of acetylated peptide AISPDK(ac)DNFYFDVK (SEQ ID NO: 284) (NAD(P) transhydrogenase mitochondrial [403], NNT, drug:DMSO): 0.00 log 2; light to heavy ratio (L/H ratio) of acetylated peptide, log 2 scale (NIDPK(ac)PCTPR (SEQ ID NO: 148), Isoform 1 of DAZ-associated protein 1 [83], DAZAP1): 0.00
